# Measurements taken from patent US9480712B2, “Biomedical composition” (INDUSTRIAL TECHNOLOGY RESEARCH INSTITUTE, priority 2013, dated 2016).
# Assays:
# [1] = test system: U87MC cells; test: Cytotoxicity analysis (MTT); format: cell-based; conditions: Homo sapiens, U-87 MG, U87 cells, 48 hours
# Procedure: U87 cells were inoculated in a 96-well culture plate with a density of 1×10^4 cells/well, and cultured in a 37° C., 5% CO2 incubator for 1 day. […] Next, the old medium was removed from the culture plate and the culture plate was washed with medium three times. After the medium was removed from the culture plate, 100 μL of 0.5 mg/mL MTT reagent was added to the plate, and the culture plate was incubated at 37° C. for 4 hours. Then, the old medium was removed and 100 μL of 0.1 N HCl/isopropanol was added to the culture plate to dissolve the precipitate. Finally, the culture plate was placed in a ELISA reader to determine the absorbance at wavelength 570 nm, and the absorbance was converted into cell viability based on the following formula: Cell viability (%)=Intensity of sample/Intensity of control×100%.
# [2] = Concentration of Pt in rat plasma by ICP-AES, pharmacokinetic parameters; format: in vivo, rats; conditions: 0.5 mg/rat
# Procedure: The rats were grouped, and 0.5 mg/rat oxaliplatin, Formulations PtHC101, PtHC305 and PtHC603, were respectively administered. After that, at different time points the blood samples were sampled from the rats, the concentrations of Pt in the plasma were analyzed by inductively coupled plasma with atomic emission spectroscopy (ICP-AES), and the original drug concentration in blood (CO), half-life (T ½), area under curve (AUC), volume of distribution (Vz), and clearance (Cl) of each formulation were calculated.
# [3] = test system: HT-29 cells, human colon adenocarcinoma cell line; test: Tumor growth inhibition in nude mice implanted with HT-29 cells; format: in vivo; conditions: 2 mg Pt/kg, tail vein, twice a week, 6 doses; day 14 to day 42
# Procedure: HT-29 cells, human colon adenocarcinoma cell line, were implanted into the backs of nude mice. After the size of the tumor reached 100-200 mm^3, the mice were administered hyaluronic acid derivative/DACHPt complex nano-carriers formed by Formulation PtHC604 (2 mg Pt/kg), oxaliplatin (2 mg Pt/kg) or 10% sucrose through tail vein injections twice a week, for a total of 6 doses. The size changes of the tumors were measured, regularly, and tumor growth inhibition (TGI) rate was calculated. Calculation formula is as follows: Tumor growth inhibition (TGI) (%)=[1−(Δ Tumor volume for drug treatment group/Δ Tumor volume for vehicle treatment group)]×100
Compound,IC50 [1],AUClast [2],C0 [2],Cl_pred [2],HL_Lambda_z [2],Vz_pred [2],tumor growth inhibition (TGI) rate [3]
"COc1cccc2c1C(=O)c1c(O)c3c(c(O)c1C2=O)C[C@@](O)(C(=O)CO)C[C@@H]3O[C@H]1C[C@H](N)[C@H](O)[C@H](C)O1 [Doxorubicin, doxorubicin]",100 nM,,,,,,
"O=C1[O][Pt]2([NH][C@@H]3CCCC[C@H]3[NH]2)[O]C1=O [Oxaliplatin, oxaliplatin]",,4202.6 ± 1280.2 ng·h/mL,6317.9 ± 4430.9 ng/mL,221.7 ± 67.6 mL/h/kg,8.2 ± 1.1 h,2620.8 ± 868.5 mL/kg,42±8%
